# From patent US20060004019A1, “Steroid sparing agents and methods of using same” (priority 2004, published 2006)
# Columns and labels:
# [1] = system: rat cardiac allografts; experiment: Rat cardiac allograft study, Allograft Study 5, dose response (Table 23); format: in vivo
# [2] = system: rat cardiac allografts; experiment: Rat cardiac allograft study, Allograft Study 4 (Table 22); conditions: s.c., GG5/3 3 mg/kg, compounds 30 mg/kg;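 also: heterotopic abdominal heart transplants from Lewis × Brown Norway F1 donors into male Lewis rats, graft beating checked daily by flank palpation, rejection defined as complete stop of heartbeat, transplant day 0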
# Procedure: Hearts from Lewis X Brown Norway F1 hybrids were transplanted to the abdominal great vessels of Lewis recipients using standard microvascular techniques. Both rat strains were male inbred rats, weighing 200-300 g. Food and water was available at all times except during surgical and dosing procedures. The day of transplantation was noted as day 0. Twelve hours following the last dose approximately 1 ml of blood was collected into lithium/heparin anti-coagulant tubes. If any graft was rejected prior to the last day of dosing, blood samples were taken 12 hours after dosing on the day that graft rejection was noted. All blood samples were centrifuged at 3000 rpm for 10 minutes and the plasma was harvested, frozen on dry ice and stored frozen at −20 C prior to analysis. Allograft survival in the rats was evaluated by daily palpation of the transplanted heart through the recipient's flank. Rejection was taken as the day of complete cessation of the graft's heart beat. Upon determination of rejection, the abdomen of the recipient was incised and retracted to confirm cessation of the heart beat in the transplanted heart. If cessation of the heart beat was not confirmed the abdomen was surgically closed, and the grafted heart was evaluated daily.
# Cardiac allografts were established. Dosing of compounds began on day −2, 2 days prior to transplantation and continued through day +10. […] The vehicle control, 0.9% saline, pH adjusted to a value of 5, to match the dosing solution containing the N-[N-(3-pyridinesulfonyl)-L-3,3-dimethyl-4-thiaprolyl]-0-[1-methylpiperazin-4-ylcarbonyl]-L-tyrosine isopropyl ester, was administered via the same route, i.e. every 12 hours, day −2 through day +10. The antibody, GG5/3 in 0.9% saline, was administered at 3 mg/kg, s.c., on day 0, +3, +7 and +10. All GG5/3 animals received twice daily s.c. injections of 0.9% saline, every 12 hours, from day −2 through day +10. The vehicle control, 0.9% saline, was administered daily, s.c., day 0 through day +10. All dosing solutions were formulated daily at a constant dose volume of 5 ml/kg. The site of injection was rotated at each injection through four possible sites: right and left fore flank, right and left rear flank. A total of 21 allografts, amongst 5 groups, were evaluated in the study. […] Two animals within the 0.9% saline group received saline adjusted to a pH a value of 5. (The pH value of the N-[N-(3-pyridinesulfonyl)-L-3,3-dimethyl-4-thiaprolyl]-0-[1-methylpiperazin-4-ylcarbonyl]-L-tyrosine isopropyl ester dosing solution.) The remaining two animals received saline of pH 7. Group 2 consisted of 6 animals treated with the monoclonal antibody, GG5/3. […] Twelve hours following the last dose approximately 1 ml of blood was collected into lithium/heparin anti-coagulant tubes. If any graft was rejected prior to the last day of dosing, blood samples were taken 12 hours after dosing on the day that graft rejection was noted. All samples were centrifuged at 3000 rpm for 10 minutes and the plasma was harvested, frozen on dry ice and stored frozen at −20 C prior to dispatch for analysis. Allograft survival in the rats was evaluated by daily palpation of the transplanted heart through the recipient's flank. Rejection was taken as the day of complete cessation of graft's heart beat. Upon determination of rejection, the abdomen of the recipient was incised to confirm cessation of the heart beat in the transplanted heart. If cessation of the heart beat was not confirmed the abdomen was surgically closed, and the graft was evaluated daily.
smiles,measurement,setting,value
CC(C)OC(=O)[C@H](Cc1ccc(OC(=O)N2CCN(C)CC2)cc1)NC(=O)[C@H]1N([S+]([O-])c2cccnc2)CSC1(C)C (some centres unmarked) [listing 1 of 2 here],"graft survival, data normalized to group size","[1]; day 1, 3 mg/kg s.c.",100%
same,"graft survival, data normalized to group size","[1]; day 2, 3 mg/kg s.c.",100%
same,"graft survival, data normalized to group size","[1]; day 3, 3 mg/kg s.c.",100%
same,"graft survival, data normalized to group size","[1]; day 4, 3 mg/kg s.c.",100%
same,"graft survival, data normalized to group size","[1]; day 5, 3 mg/kg s.c.",100%
same,"graft survival, data normalized to group size","[1]; day 6, 3 mg/kg s.c.",100%
same,"graft survival, data normalized to group size","[1]; day 7, 3 mg/kg s.c.",83%
same,"graft survival, data normalized to group size","[1]; day 8, 3 mg/kg s.c.",83%
same,"graft survival, data normalized to group size","[1]; day 9, 3 mg/kg s.c.",50%
same,"graft survival, data normalized to group size","[1]; day 10, 3 mg/kg s.c.",0%
same,"graft survival, data normalized to group size","[1]; day 11, 3 mg/kg s.c.",0%
same,"graft survival, data normalized to group size","[1]; day 12, 3 mg/kg s.c.",0%
same,"graft survival, data normalized to group size","[1]; day 13, 3 mg/kg s.c.",0%
same,"graft survival, data normalized to group size","[1]; day 14, 3 mg/kg s.c.",0%
CC(C)OC(=O)[C@H](Cc1ccc(OC(=O)N2CCN(C)CC2)cc1)NC(=O)[C@H]1N(S(=O)(=O)c2cccnc2)CSC1(C)C [listing 1 of 5 here],"graft survival, data normalized to group size","[1]; day 1, 10 mg/kg s.c.",100%
same,"graft survival, data normalized to group size","[1]; day 2, 10 mg/kg s.c.",100%
same,"graft survival, data normalized to group size","[1]; day 3, 10 mg/kg s.c.",100%
same,"graft survival, data normalized to group size","[1]; day 4, 10 mg/kg s.c.",100%
same,"graft survival, data normalized to group size","[1]; day 5, 10 mg/kg s.c.",100%
same,"graft survival, data normalized to group size","[1]; day 6, 10 mg/kg s.c.",100%
same,"graft survival, data normalized to group size","[1]; day 7, 10 mg/kg s.c.",100%
same,"graft survival, data normalized to group size","[1]; day 8, 10 mg/kg s.c.",100%
same,"graft survival, data normalized to group size","[1]; day 9, 10 mg/kg s.c.",80%
same,"graft survival, data normalized to group size","[1]; day 10, 10 mg/kg s.c.",80%
same,"graft survival, data normalized to group size","[1]; day 11, 10 mg/kg s.c.",80%
same,"graft survival, data normalized to group size","[1]; day 12, 10 mg/kg s.c.",80%
same,"graft survival, data normalized to group size","[1]; day 13, 10 mg/kg s.c.",40%
same,"graft survival, data normalized to group size","[1]; day 14, 10 mg/kg s.c.",40%
CC(C)OC(=O)[C@H](Cc1ccc(OC(=O)N2CCN(C)CC2)cc1)NC(=O)[C@H]1N(S(=O)(=O)c2cccnc2)CSC1(C)C [listing 2 of 5 here],"graft survival, data normalized to group size","[1]; day 1, 30 mg/kg s.c.",100%
same,"graft survival, data normalized to group size","[1]; day 2, 30 mg/kg s.c.",100%
same,"graft survival, data normalized to group size","[1]; day 3, 30 mg/kg s.c.",100%
same,"graft survival, data normalized to group size","[1]; day 4, 30 mg/kg s.c.",100%
same,"graft survival, data normalized to group size","[1]; day 5, 30 mg/kg s.c.",100%
same,"graft survival, data normalized to group size","[1]; day 6, 30 mg/kg s.c.",100%
same,"graft survival, data normalized to group size","[1]; day 7, 30 mg/kg s.c.",100%
same,"graft survival, data normalized to group size","[1]; day 8, 30 mg/kg s.c.",100%
same,"graft survival, data normalized to group size","[1]; day 9, 30 mg/kg s.c.",100%
same,"graft survival, data normalized to group size","[1]; day 10, 30 mg/kg s.c.",100%
same,"graft survival, data normalized to group size","[1]; day 11, 30 mg/kg s.c.",100%
same,"graft survival, data normalized to group size","[1]; day 12, 30 mg/kg s.c.",100%
same,"graft survival, data normalized to group size","[1]; day 13, 30 mg/kg s.c.",100%
same,"graft survival, data normalized to group size","[1]; day 14, 30 mg/kg s.c.",100%
CC(C)OC(=O)[C@H](Cc1ccc(OC(=O)N2CCN(C)CC2)cc1)NC(=O)[C@H]1N([S+]([O-])c2cccnc2)CSC1(C)C (some centres unmarked) [listing 2 of 2 here],number of surviving grafts,"[1]; day 0, 3 mg/kg s.c.",6
same,number of surviving grafts,"[1]; day 1, 3 mg/kg s.c.",6
same,number of surviving grafts,"[1]; day 2, 3 mg/kg s.c.",6
same,number of surviving grafts,"[1]; day 3, 3 mg/kg s.c.",6
same,number of surviving grafts,"[1]; day 4, 3 mg/kg s.c.",6
same,number of surviving grafts,"[1]; day 5, 3 mg/kg s.c.",6
same,number of surviving grafts,"[1]; day 6, 3 mg/kg s.c.",6
same,number of surviving grafts,"[1]; day 7, 3 mg/kg s.c.",5
same,number of surviving grafts,"[1]; day 8, 3 mg/kg s.c.",5
same,number of surviving grafts,"[1]; day 9, 3 mg/kg s.c.",3
same,number of surviving grafts,"[1]; day 10, 3 mg/kg s.c.",0
same,number of surviving grafts,"[1]; day 11, 3 mg/kg s.c.",0
same,number of surviving grafts,"[1]; day 12, 3 mg/kg s.c.",0
same,number of surviving grafts,"[1]; day 13, 3 mg/kg s.c.",0
same,number of surviving grafts,"[1]; day 14, 3 mg/kg s.c.",0
same,"graft survival, data normalized to group size","[1]; day 15, 3 mg/kg s.c.",0%
same,number of surviving grafts,"[1]; day 15, 3 mg/kg s.c.",0
same,"graft survival, data normalized to group size","[1]; day 16, 3 mg/kg s.c.",16%
same,number of surviving grafts,"[1]; day 16, 3 mg/kg s.c.",0
same,"graft survival, data normalized to group size","[1]; day 17, 3 mg/kg s.c.",17%
same,number of surviving grafts,"[1]; day 17, 3 mg/kg s.c.",0
same,"graft survival, data normalized to group size","[1]; day 18, 3 mg/kg s.c.",18%
same,number of surviving grafts,"[1]; day 18, 3 mg/kg s.c.",0
same,"graft survival, data normalized to group size","[1]; day 19, 3 mg/kg s.c.",19%
same,number of surviving grafts,"[1]; day 19, 3 mg/kg s.c.",0
same,"graft survival, data normalized to group size","[1]; day 20, 3 mg/kg s.c.",20%
same,number of surviving grafts,"[1]; day 20, 3 mg/kg s.c.",0
same,"graft survival, data normalized to group size","[1]; day 21, 3 mg/kg s.c.",21%
same,number of surviving grafts,"[1]; day 21, 3 mg/kg s.c.",0
CC(C)OC(=O)[C@H](Cc1ccc(OC(=O)N2CCN(C)CC2)cc1)NC(=O)[C@H]1N(S(=O)(=O)c2cccnc2)CSC1(C)C [listing 3 of 5 here],number of surviving grafts,[2]; day 0,6
same,number of surviving grafts,[2]; day 1,6
same,number of surviving grafts,[2]; day 2,6
same,number of surviving grafts,[2]; day 3,6
same,number of surviving grafts,[2]; day 4,6
same,number of surviving grafts,[2]; day 5,6
same,number of surviving grafts,[2]; day 6,6
same,number of surviving grafts,[2]; day 7,6
same,number of surviving grafts,[2]; day 8,6
same,number of surviving grafts,[2]; day 9,5
same,number of surviving grafts,[2]; day 10,4
same,number of surviving grafts,[2]; day 11,4
same,number of surviving grafts,[2]; day 12,4
same,number of surviving grafts,[2]; day 13,4
same,number of surviving grafts,[2]; day 14,4
same,number of surviving grafts,[2]; day 15,4
same,number of surviving grafts,[2]; day 16,3
same,number of surviving grafts,[2]; day 17,3
same,number of surviving grafts,[2]; day 18,3
same,number of surviving grafts,[2]; day 19,3
CC(C)OC(=O)[C@H](Cc1ccc(OC(=O)N2CCN(C)CC2)cc1)NC(=O)[C@H]1N(S(=O)(=O)c2cccnc2)CSC1(C)C [listing 4 of 5 here],number of surviving grafts,"[1]; day 0, 10 mg/kg s.c.",5
same,number of surviving grafts,"[1]; day 1, 10 mg/kg s.c.",5
same,number of surviving grafts,"[1]; day 2, 10 mg/kg s.c.",5
same,number of surviving grafts,"[1]; day 3, 10 mg/kg s.c.",5
same,number of surviving grafts,"[1]; day 4, 10 mg/kg s.c.",5
same,number of surviving grafts,"[1]; day 5, 10 mg/kg s.c.",5
same,number of surviving grafts,"[1]; day 6, 10 mg/kg s.c.",5
same,number of surviving grafts,"[1]; day 7, 10 mg/kg s.c.",5
same,number of surviving grafts,"[1]; day 8, 10 mg/kg s.c.",5
same,number of surviving grafts,"[1]; day 9, 10 mg/kg s.c.",4
same,number of surviving grafts,"[1]; day 10, 10 mg/kg s.c.",4
same,number of surviving grafts,"[1]; day 11, 10 mg/kg s.c.",4
same,number of surviving grafts,"[1]; day 12, 10 mg/kg s.c.",4
same,number of surviving grafts,"[1]; day 13, 10 mg/kg s.c.",2
same,number of surviving grafts,"[1]; day 14, 10 mg/kg s.c.",2
same,"graft survival, data normalized to group size","[1]; day 15, 10 mg/kg s.c.",40%
same,number of surviving grafts,"[1]; day 15, 10 mg/kg s.c.",2
same,"graft survival, data normalized to group size","[1]; day 16, 10 mg/kg s.c.",20%
same,number of surviving grafts,"[1]; day 16, 10 mg/kg s.c.",1
same,"graft survival, data normalized to group size","[1]; day 17, 10 mg/kg s.c.",20%
same,number of surviving grafts,"[1]; day 17, 10 mg/kg s.c.",1
same,"graft survival, data normalized to group size","[1]; day 18, 10 mg/kg s.c.",20%
same,number of surviving grafts,"[1]; day 18, 10 mg/kg s.c.",1
same,"graft survival, data normalized to group size","[1]; day 19, 10 mg/kg s.c.",20%
same,number of surviving grafts,"[1]; day 19, 10 mg/kg s.c.",1
same,"graft survival, data normalized to group size","[1]; day 20, 10 mg/kg s.c.",20%
same,number of surviving grafts,"[1]; day 20, 10 mg/kg s.c.",1
same,"graft survival, data normalized to group size","[1]; day 21, 10 mg/kg s.c.",20%
same,number of surviving grafts,"[1]; day 21, 10 mg/kg s.c.",1
CC(C)OC(=O)[C@H](Cc1ccc(OC(=O)N2CCN(C)CC2)cc1)NC(=O)[C@H]1N(S(=O)(=O)c2cccnc2)CSC1(C)C [listing 5 of 5 here],number of surviving grafts,"[1]; day 0, 30 mg/kg s.c.",6
same,number of surviving grafts,"[1]; day 1, 30 mg/kg s.c.",6
same,number of surviving grafts,"[1]; day 2, 30 mg/kg s.c.",6
same,number of surviving grafts,"[1]; day 3, 30 mg/kg s.c.",6
same,number of surviving grafts,"[1]; day 4, 30 mg/kg s.c.",6
same,number of surviving grafts,"[1]; day 5, 30 mg/kg s.c.",6
same,number of surviving grafts,"[1]; day 6, 30 mg/kg s.c.",6
same,number of surviving grafts,"[1]; day 7, 30 mg/kg s.c.",6
same,number of surviving grafts,"[1]; day 8, 30 mg/kg s.c.",6
same,number of surviving grafts,"[1]; day 9, 30 mg/kg s.c.",6
same,number of surviving grafts,"[1]; day 10, 30 mg/kg s.c.",6
same,number of surviving grafts,"[1]; day 11, 30 mg/kg s.c.",6
same,number of surviving grafts,"[1]; day 12, 30 mg/kg s.c.",6
same,number of surviving grafts,"[1]; day 13, 30 mg/kg s.c.",6
same,number of surviving grafts,"[1]; day 14, 30 mg/kg s.c.",6
same,"graft survival, data normalized to group size","[1]; day 15, 30 mg/kg s.c.",100%
same,number of surviving grafts,"[1]; day 15, 30 mg/kg s.c.",6
same,"graft survival, data normalized to group size","[1]; day 16, 30 mg/kg s.c.",100%
same,number of surviving grafts,"[1]; day 16, 30 mg/kg s.c.",6
same,"graft survival, data normalized to group size","[1]; day 17, 30 mg/kg s.c.",100%
same,number of surviving grafts,"[1]; day 17, 30 mg/kg s.c.",6
same,"graft survival, data normalized to group size","[1]; day 18, 30 mg/kg s.c.",100%
same,number of surviving grafts,"[1]; day 18, 30 mg/kg s.c.",6
same,"graft survival, data normalized to group size","[1]; day 19, 30 mg/kg s.c.",100%
same,number of surviving grafts,"[1]; day 19, 30 mg/kg s.c.",6
same,"graft survival, data normalized to group size","[1]; day 20, 30 mg/kg s.c.",100%
same,number of surviving grafts,"[1]; day 20, 30 mg/kg s.c.",6
same,"graft survival, data normalized to group size","[1]; day 21, 30 mg/kg s.c.",83%
same,number of surviving grafts,"[1]; day 21, 30 mg/kg s.c.",5
